#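 Dose response: 5 concentrations. Exposure: 48 h. Format: 96-well plates. Endpoint: linear interpolation; highest concentration if not reached. TGI: total growth inhibition.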
# Legend:
# Test in all cases: growth of human tumour cells (NCI), 48 h
# 786-0 renal = test system: 786-0 renal
# OVCAR-8 ovarian = test system: OVCAR-8 ovarian
# SK-MEL-2 melanoma = test system: SK-MEL-2 melanoma
# A498 renal = test system: A498 renal
# CCRF-CEM leukemia = test system: CCRF-CEM leukemia
# LOX IMVI melanoma = test system: LOX IMVI melanoma
# MDA-MB-231 breast = test system: MDA-MB-231 breast
# UACC-62 melanoma = test system: UACC-62 melanoma
# HOP-92 NSCLC = test system: HOP-92 NSCLC
# M14 melanoma = test system: M14 melanoma
# CAKI-1 renal = test system: CAKI-1 renal
# ACHN renal = test system: ACHN renal
# SN12C renal = test system: SN12C renal
# HS 578T breast = test system: HS 578T breast
# SK-OV-3 ovarian = test system: SK-OV-3 ovarian
# IGROV1 ovarian = test system: IGROV1 ovarian
# K-562 leukemia = test system: K-562 leukemia
# HCT-15 colon = test system: HCT-15 colon
# NCI-H226 lung = test system: NCI-H226 lung
# SW-620 colon = test system: SW-620 colon
# OVCAR-3 ovarian = test system: OVCAR-3 ovarian
# MALME-3M melanoma = test system: MALME-3M melanoma
# KM12 colon = test system: KM12 colon
# MDA-N = test system: MDA-N
# HL-60(TB) leukemia = test system: HL-60(TB) leukemia
# COLO 205 colon = test system: COLO 205 colon
# MOLT-4 leukemia = test system: MOLT-4 leukemia
# SK-MEL-5 melanoma = test system: SK-MEL-5 melanoma
# DU-145 prostate = test system: DU-145 prostate
# TK-10 renal = test system: TK-10 renal
# HOP-62 NSCLC = test system: HOP-62 NSCLC
# SF-268 CNS = test system: SF-268 CNS
# MCF7 breast = test system: MCF7 breast
# HCC-2998 colon = test system: HCC-2998 colon
# T-47D breast = test system: T-47D breast
# NCI-H460 lung = test system: NCI-H460 lung
# SNB-75 CNS = test system: SNB-75 CNS
# SK-MEL-28 melanoma = test system: SK-MEL-28 melanoma
# UACC-257 melanoma = test system: UACC-257 melanoma
# NCI-H23 lung = test system: NCI-H23 lung
# HCT-116 colon = test system: HCT-116 colon
# MDA-MB-435 = test system: MDA-MB-435
# NCI/ADR-RES ovarian = test system: NCI/ADR-RES ovarian
# SF-539 CNS = test system: SF-539 CNS
# U251 CNS = test system: U251 CNS
# SNB-19 CNS = test system: SNB-19 CNS
# RPMI-8226 leukemia = test system: RPMI-8226 leukemia
# PC-3 prostate = test system: PC-3 prostate
# EKVX NSCLC = test system: EKVX NSCLC
# OVCAR-4 ovarian = test system: OVCAR-4 ovarian
# SF-295 CNS = test system: SF-295 CNS
# HT29 colon = test system: HT29 colon
# BT-549 breast = test system: BT-549 breast
# OVCAR-5 ovarian = test system: OVCAR-5 ovarian
# UO-31 renal = test system: UO-31 renal
# NCI-H522 lung = test system: NCI-H522 lung
# A549 NSCLC = test system: A549 NSCLC
smiles,measurement,setting,value
C=C1CC(C)(COc2ccc3c(C)c(C)c(=O)oc3c2C)OC1=O (centres undefined),TGI,786-0 renal,3.24 µM
same,TGI,OVCAR-8 ovarian,7.69 µM
same,TGI,SK-MEL-2 melanoma,5.58 µM
same,TGI,A498 renal,4.26 µM
same,TGI,CCRF-CEM leukemia,3.2 µM
same,TGI,LOX IMVI melanoma,2.91 µM
same,TGI,MDA-MB-231 breast,7.8 µM
same,TGI,UACC-62 melanoma,2.74 µM
same,TGI,HOP-92 NSCLC,2.76 µM
same,TGI,M14 melanoma,10.7 µM
same,TGI,CAKI-1 renal,6.26 µM
same,TGI,ACHN renal,7.45 µM
same,TGI,SN12C renal,4.28 µM
same,TGI,HS 578T breast,15.1 µM
same,TGI,SK-OV-3 ovarian,12.2 µM
same,TGI,IGROV1 ovarian,3.35 µM
same,TGI,K-562 leukemia,4.4 µM
same,TGI,HCT-15 colon,4.54 µM
same,TGI,NCI-H226 lung,32.6 µM
same,TGI,SW-620 colon,3.92 µM
same,TGI,OVCAR-3 ovarian,14.2 µM
same,TGI,MALME-3M melanoma,5.53 µM
same,TGI,KM12 colon,19.6 µM
same,TGI,MDA-N,4.61 µM
same,TGI,HL-60(TB) leukemia,0.954 µM
same,TGI,COLO 205 colon,2.75 µM
same,TGI,MOLT-4 leukemia,4.13 µM
same,TGI,SK-MEL-5 melanoma,3.73 µM
same,TGI,DU-145 prostate,7.08 µM
same,TGI,TK-10 renal,3.08 µM
same,TGI,HOP-62 NSCLC,28.8 µM
same,TGI,SF-268 CNS,15.7 µM
same,TGI,MCF7 breast,2.84 µM
same,TGI,HCC-2998 colon,4.49 µM
same,TGI,T-47D breast,3.09 µM
same,TGI,NCI-H460 lung,19.6 µM
same,TGI,SNB-75 CNS,15.9 µM
same,TGI,SK-MEL-28 melanoma,5.08 µM
same,TGI,UACC-257 melanoma,6.98 µM
same,TGI,NCI-H23 lung,5.25 µM
same,TGI,HCT-116 colon,2.41 µM
same,TGI,MDA-MB-435,11.2 µM
same,TGI,NCI/ADR-RES ovarian,13.8 µM
same,TGI,SF-539 CNS,7.04 µM
same,TGI,U251 CNS,18.9 µM
same,TGI,SNB-19 CNS,30.4 µM
same,TGI,RPMI-8226 leukemia,2.59 µM
same,TGI,PC-3 prostate,7.08 µM
same,TGI,EKVX NSCLC,15.1 µM
same,TGI,OVCAR-4 ovarian,19.3 µM
same,TGI,SF-295 CNS,16.1 µM
same,TGI,HT29 colon,5.39 µM
same,TGI,BT-549 breast,3.07 µM
same,TGI,OVCAR-5 ovarian,16.2 µM
same,TGI,UO-31 renal,22.2 µM
same,TGI,NCI-H522 lung,4.28 µM
same,TGI,A549 NSCLC,21 µM
CCOC(=O)[C@H]1O[C@@H]1C(=O)NC(CC(C)C)C(=O)NCCC(C)C (some centres undefined),TGI,786-0 renal,> 100 µM
same,TGI,OVCAR-8 ovarian,> 100 µM
same,TGI,A498 renal,> 100 µM
same,TGI,CCRF-CEM leukemia,> 100 µM
same,TGI,MDA-MB-231 breast,> 100 µM
same,TGI,UACC-62 melanoma,> 100 µM
same,TGI,HOP-92 NSCLC,> 100 µM
same,TGI,M14 melanoma,> 100 µM
same,TGI,CAKI-1 renal,> 100 µM
same,TGI,SN12C renal,> 100 µM
same,TGI,HS 578T breast,> 100 µM
same,TGI,SK-OV-3 ovarian,> 100 µM
same,TGI,IGROV1 ovarian,> 100 µM
same,TGI,K-562 leukemia,> 100 µM
same,TGI,HCT-15 colon,> 100 µM
same,TGI,NCI-H226 lung,> 100 µM
same,TGI,SW-620 colon,> 100 µM
same,TGI,OVCAR-3 ovarian,> 100 µM
same,TGI,MALME-3M melanoma,> 100 µM
same,TGI,KM12 colon,> 100 µM
same,TGI,MDA-N,> 100 µM
same,TGI,COLO 205 colon,> 100 µM
same,TGI,MOLT-4 leukemia,> 100 µM
same,TGI,SK-MEL-5 melanoma,> 100 µM
same,TGI,DU-145 prostate,> 100 µM
same,TGI,HOP-62 NSCLC,> 100 µM
same,TGI,SF-268 CNS,> 100 µM
same,TGI,MCF7 breast,> 100 µM
same,TGI,HCC-2998 colon,> 100 µM
same,TGI,T-47D breast,> 100 µM
same,TGI,NCI-H460 lung,> 100 µM
same,TGI,SNB-75 CNS,> 100 µM
same,TGI,SK-MEL-28 melanoma,> 100 µM
same,TGI,UACC-257 melanoma,> 100 µM
same,TGI,NCI-H23 lung,> 100 µM
same,TGI,HCT-116 colon,> 100 µM
same,TGI,MDA-MB-435,> 100 µM
same,TGI,NCI/ADR-RES ovarian,> 100 µM
same,TGI,SF-539 CNS,> 100 µM
same,TGI,U251 CNS,> 100 µM
same,TGI,SNB-19 CNS,> 100 µM
same,TGI,RPMI-8226 leukemia,> 100 µM
same,TGI,PC-3 prostate,> 100 µM
same,TGI,EKVX NSCLC,> 100 µM
same,TGI,OVCAR-4 ovarian,> 100 µM
same,TGI,SF-295 CNS,> 100 µM
same,TGI,HT29 colon,> 100 µM
same,TGI,BT-549 breast,> 100 µM
same,TGI,OVCAR-5 ovarian,> 100 µM
same,TGI,UO-31 renal,> 100 µM
same,TGI,NCI-H522 lung,> 100 µM
same,TGI,A549 NSCLC,> 100 µM
